Measured values published in patent US8969345B2, “Dibenzooxepin derivative” (Kyowa Hakko Kirin Co., Ltd., priority 2011, dated 2015).

Key:
[1] = target: T1, GAL4-PPAR γ chimeric nuclear receptor (human PPAR γ ligand binding domain) (Homo sapiens, UniProt P37231); test: PPAR γ transactivation assay by transient gene transfer (GAL4-PPAR γ chimeric receptor, luciferase reporter, HEK293EBNA cells); format: cell-based; conditions: concentration showing 50% of efficacy (maximum activity rate relative to pioglitazone = 100%), 24 hr
T1 construct: expressed in transfected cells; host or cells: HEK293EBNA cells, transient transfection with SuperFect
T1 sequence (P37231 174-475 isoform P37231-2): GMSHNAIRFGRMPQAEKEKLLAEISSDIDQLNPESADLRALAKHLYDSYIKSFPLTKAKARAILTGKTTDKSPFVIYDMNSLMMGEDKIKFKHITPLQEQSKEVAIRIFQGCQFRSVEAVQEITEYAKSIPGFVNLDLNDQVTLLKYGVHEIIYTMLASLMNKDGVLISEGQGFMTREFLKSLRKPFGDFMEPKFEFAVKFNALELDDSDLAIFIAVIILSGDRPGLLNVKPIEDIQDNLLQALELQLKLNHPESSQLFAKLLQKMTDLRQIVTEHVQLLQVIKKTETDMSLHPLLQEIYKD
Procedure: The agonist activity of the test compound to PPAR γ was determined by a transactivation assay method using a chimeric nuclear receptor of a DNA binding region of a yeast transcription factor GAL4 and a PPAR γ ligand binding region. Specifically, the PPAR γ agonist activity of the test compound was evaluated by the following method based on the method of Lehmann et al. (J Biol. Chem., 1995, vol. 270, page 12953).
HEK293EBNA cells cultured in Dulbecco's Modified Eagle medium (Invitrogen) containing 10 v/v % fetal bovine serum (Invitrogen) were used. 30 mL of the above-mentioned cells (density: 1×10^5 cells/mL) were inoculated in a […] (Iwaki Glass), and cultured overnight. Using SuperFect Transfection Reagent (QIAGEN), a plasmid expressing a GAL4-PPAR γ chimeric nuclear receptor fusing 174-475 amino acids, which are human PPAR γ ligand binding domain, and 1-147 amino acids, which are GAL4 DNA binding domain, and a reporter plasmid expressing a GAL4 responsive luciferase were transiently introduced into the cells at a proportion of 4:1. After 5 hr from transfection, the cells were detached from the culture dish, and the detached cells (density: 2×10^4 cells/mL) were inoculated by 100 μL in each well of a 96 well white plate (SUMITOMO BAKELITE), and cultured overnight. The medium was removed, the test compound diluted in various concentrations with serum-free Dulbecco's Modified Eagle medium was added by 100 μL, and the mixture was reacted under a 5% carbon dioxide gas stream (5% CO2) at 37° C. for 24 hr. On the other hand, as a positive control, 10 μmol/L of pioglitazone (100 μL) was added, and the mixture was reacted under a 5% carbon dioxide gas stream (5% CO2) at 37° C. for 24 hr. As a substrate of luciferase, 100 μL of Steady-Glo (Promega) was added to each well and the mixture was thoroughly stirred. Immediately thereafter, the chemical luminescence due to luciferase was measured using TopCount NTX (Packard).
The agonist activity (activity rate (%)) of the test compound to PPAR γ was calculated according to the following formula, as a relative activity when the agonist activity on addition of pioglitazone ([…]) was 100%.

[2] = Metabolic stability evaluation in human liver microsome; format: in vitro ADME; conditions: liver microsomes, pH 7.4; human liver microsome 0.2 mg/mL protein, test compound 1 μmol/L, β-NADPH, 37° C., 30 min; average of two samples; read-out: hCLint (converted)
Procedure: Human liver microsome (pool of 50 donors) was purchased from XenoTech. A reaction mixture containing phosphate buffer (100 mmol/L, pH 7.4), ethylenediamine tetraacetic acid (0.1 mmol/L), magnesium chloride (6 mmol/L), human liver microsome (0.2 mg/mL protein) and test compound (1 μmol/L) was prepared. The reaction mixture was preincubated at 37° C. for 5 min, β-NADPH (1 mmol/L) was added and the mixture was incubated at 37° C. for 30 min. The protein was removed with acetonitrile from the sample after the reaction and the sample was measured by LC-MS/MS. The ratio of the organic solvent in the reaction mixture was set to about 0.5%, and the reaction was performed in 2 samples.
The elimination rate constant (ke) was calculated from the linear regression of the logarithm plot of the residual ratio of the test compound and at 30 min after the reaction, and the liver inherent clearance (Cint) was calculated by the following formula.
[formula] ke: elimination rate constant (1/h) a: concentration (mg/mL) of liver microsome in the reaction mixture b: liver microsome amount per liver unit weight (32.3 mg/g liver) c: liver weight per unit body weight (25.7 g liver/kg body weight) Each test compound was tested in two samples, and the average thereof was calculated.

| EC50 [1] [µM] | CLint scaled at 1 μmol/L [2] [L/h/kg] | Structure (SMILES) |
| --- | --- | --- |
| 0.0317 | 1 | COCc1nc2ccccn2c1Cc1ccc2c(c1)COc1cc(F)ccc1/C2=C(\C)c1noc(=O)[nH]1 [Compound 8f, (E)-3-[1-(3-fluoro8-{[2-(methoxymethyl)imidazo[1,2-a]pyridin-3-yl]methyl}dibenzo[b,e]oxepin-11(6H)-ylidene)ethyl]-1,2,4-oxadiazol-5(4H)-one] |
| 0.13 | 1.7 | C/C(=C1/c2ccc(Cc3c(C)nc4cc(C5CC5)ccn34)cc2COc2cc(F)ccc21)c1noc(=O)[nH]1 [Compound 14g, (E)-3-(1-{8-[(7-cyclopropyl-2-methylimidazo[1,2-a]pyridin-3-yl)methyl]-3-fluorodibenzo[b,e]oxepin-11(6H)-ylidene}ethyl)-1,2,4-oxadiazol-5(4H)-one] |
| 0.0333 | 3 | C/C(=C1/c2ccc(Cc3c(C(C)C)nc4ccccn34)cc2COc2cc(F)ccc21)c1noc(=O)[nH]1 [Compound 8c, (E)-3-(1-{3-fluoro-8-[(2-isopropylimidazo[1,2-a]pyridin-3-yl)methyl]dibenzo[b,e]oxepin-11(6H)-ylidene}ethyl)-1,2,4-oxadiazol-5(4H)-one] |
| 0.0595 | 1.6 | CCCc1nc2c(C(N)=O)cccc2n1Cc1ccc2c(c1)COc1cc(F)ccc1/C2=C(\C)c1noc(=O)[nH]1 [Compound 2b, (E)-1-({3-fluoro-11-[1-(5-oxo-4,5-dihydro-1,2,4-oxadiazol-3-yl)ethylidene]-6,11-dihydrodibenzo[b,e]oxepin-8-yl}methyl)-2-propyl-1H-benzo[d]imidazole-4-carboxamide] |
| 0.009 | 1.4 | C/C(=C1/c2ccc(Cn3c(C4CC4)nc4ccccc43)cc2COc2cc(F)ccc21)c1noc(=O)[nH]1 [Compound 1d, (E)-3-(1-{8-[(2-cyclopropyl-1H-benzo[d]imidazol-1-yl)methyl]-3-fluorodibenzo[b,e]oxepin-11(6H)-ylidene}ethyl)-1,2,4-oxadiazol-5(4H)-one] |
| 0.0228 | 0.57 | C/C(=C1/c2ccc(Cn3c(C4CCC4)nc4c(Cl)nccc43)cc2COc2cc(F)ccc21)c1noc(=O)[nH]1 [Compound 3b, (E)-3-(1-{8-[(4-chloro-2-cyclobutyl-1H-imidazo[4,5-c]pyridin-1-yl)methyl]-3-fluorodibenzo[b,e]oxepin-11(6H)-ylidene}ethyl)-1,2,4-oxadiazol-5(4H)-one] |
| 0.0072 | 1.7 | C/C(=C1/c2ccc(Cn3c(C4CC(F)(F)C4)nc4ccccc43)cc2COc2cc(F)ccc21)c1noc(=O)[nH]1 [Compound 1j, (E)-3-[1-(8-{[2-(3,3-difluorocyclobutyl)-1H-benzo[d]imidazol-1-yl]methyl}-3-fluorodibenzo[b,e]oxepin-11(6H)-ylidene)ethyl]-1,2,4-oxadiazol-5(4H)-one] |
| 0.0277 | 2.9 | CCCc1nc2ccccc2n1Cc1ccc2c(c1)COc1c(ccc(F)c1F)/C2=C(\C)c1noc(=O)[nH]1 [Compound 7a, (E)-3-(1-{3,4-difluoro-8-[(2-propyl-1H-benzo[d]imidazol-1-yl)methyl]dibenzo[b,e]oxepin-11(6H)-ylidene}ethyl)-1,2,4-oxadiazol-5(4H)-one] |
| 0.0139 | 4.3 | C/C(=C1/c2ccc(Cc3c(C4CC4)nc4c(F)cccn34)cc2COc2cc(F)ccc21)c1noc(=O)[nH]1 [Compound 9i, (E)-3-(1-{8-[(2-cyclopropyl-8-fluoroimidazo[1,2-a]pyridin-3-yl)methyl]-3-fluorodibenzo[b,e]oxepin-11(6H)-ylidene}ethyl)-1,2,4-oxadiazol-5(4H)-one] |
| 0.0277 | 2.4 | C/C(=C1/c2ccc(Cc3c(C4CC4)nc4ccccn34)cc2COc2cc(F)ccc21)c1noc(=O)[nH]1 [Compound 8b, (E)-3-(1-{8-[(2-cyclopropylimidazo[1,2-a]pyridin-3-yl)methyl]-3-fluorodibenzo[b,e]oxepin-11(6H)-ylidene}ethyl)-1,2,4-oxadiazol-5(4H)-one] |
| 0.0545 | 1.1 | O=c1[nH]c(/C(F)=C2\c3ccc(Cc4c(C5CC5)nc5c(Cl)cccn45)cc3COc3cc(F)ccc32)no1 [Compound 8n, (Z)-3-({8-[(8-chloro-2-cyclopropylimidazo[1,2-a]pyridin-3-yl)methyl]-3-fluorodibenzo[b,e]oxepin-11(6H)-ylidene}fluoromethyl)-1,2,4-oxadiazol-5(4H)-one] |
| 0.0367 | 1.6 | COCc1nc2cscc2n1Cc1ccc2c(c1)COc1cc(F)ccc1/C2=C(\C)c1noc(=O)[nH]1 [Compound 13d, (E)-3-[1-(3-fluoro-8-{[2-(methoxymethyl)-1H-thieno[3,4-d]imidazol-1-yl]methyl}dibenzo[b,e]oxepin-11(6H)-ylidene)ethyl]-1,2,4-oxadiazol-5(4H)-one] |
| 0.0053 | 2.4 | COCc1nc2cc(Cl)ccn2c1Cc1ccc2c(c1)COc1cc(F)ccc1/C2=C(\C)c1noc(=O)[nH]1 [Compound 10e, (E)-3-{1-(8-{[7-chloro-2-(methoxymethyl)imidazo[1,2-a]pyridin-3-yl]methyl}-3-fluorodibenzo[b,e]oxepin-11(6H)-ylidene)ethyl}-1,2,4-oxadiazol-5(4H)-one] |
| 0.239 | 7.6 | C/C(=C1/c2ccc(Cc3c(C#N)nc4cc(F)ccn34)cc2COc2cc(F)ccc21)c1noc(=O)[nH]1 [Compound 14i, (E)-3-(1-{8-[(2-cyano-7-fluoroimidazo[1,2-a]pyridin-3-yl)methyl]-3-fluorodibenzo[b,e]oxepin-11(6H)-ylidene}ethyl)-1,2,4-oxadiazol-5(4H)-one] |
| 0.0782 | 3.9 | O=c1[nH]c(/C(=C2\c3ccc(Cc4c(C5CC5)nc5ccccn45)cc3COc3cc(F)ccc32)C2CC2)no1 [Compound 12c] |
| 0.0139 | 2.1 | C/C(=C1/c2ccc(Cc3c(C)nc4cc(C(F)(F)F)ccn34)cc2COc2cc(F)ccc21)c1noc(=O)[nH]1 [Compound 11b, (E)-3-[1-(3-fluoro-8-{[2-methyl-7-(trifluoromethyl)imidazo[1,2-a]pyridin-3-yl]methyl}dibenzo[b,e]oxepin-11(6H)-ylidene)ethyl]-1,2,4-oxadiazol-5(4H)-one] |
| 0.019 | 5.4 | C/C(=C1/c2ccc(Cc3c(C4CC4)nc4nc(C(F)(F)F)ccn34)cc2COc2cc(F)ccc21)c1noc(=O)[nH]1 [Compound 11h, (E)-3-[1-(8-{[2-cyclopropyl-7-(trifluoromethyl)imidazo[1,2-a]pyrimidin-3-yl]methyl}-3-fluorodibenzo[b,e]oxepin-11(6H)-ylidene)ethyl]-1,2,4-oxadiazol-5(4H)-one] |
| 0.0074 | 3.7 | CCCc1nc2c(C)nccn2c1Cc1ccc2c(c1)COc1cc(F)ccc1/C2=C(\C)c1noc(=O)[nH]1 [Compound 14d, (E)-3-(1-{3-fluoro-8-[(8-methyl-2-propylimidazo[1,2-a]pyrazin-3-yl)methyl]dibenzo[b,e]oxepin-11(6H)-ylidene}ethyl)-1,2,4-oxadiazol-5(4H)-one] |
